Assay results from patent US20210106566A1, “PHARMACEUTICAL COMPOSITION FOR TREATING AND/OR PREVENTING PERIPHERAL NEUROPATHY OR SPINAL CORD INJURY” (NATIONAL UNIVERSITY CORPORATION NAGOYA UNIVERSITY, priority 2015, published 2021).

Legend:
[1] = system: mouse sciatic nerve autologous transplantation model; test: Mouse sciatic nerve autologous transplantation model: number and area of myelinated axons; format: in vivo; settings: 30 mg/kg/day to the stomach, one week after surgery, section 0.7 mm distal to the distal transection site
Excerpt: Adult male C57BL/6J mice (8 weeks old; 19.5-22.0 g) were purchased from Charles River. The mice were anesthetized with isoflurane and underwent gluteal muscle incision under a sterile condition to expose the sciatic nerve in the left leg. The sciatic nerve was cut at the following two sites (1) and (2): (1) the site 3 mm distal to the first bifurcation of biceps femoris (hereinafter referred to as proximal transection site) (2) the site 3 mm distal to the proximal transection site (hereinafter referred to as distal transection site) The excised nerve segment with a length of 3 mm was confirmed to be completely cut at the two sites. The perineurium was sutured with nylon thread (10-0 black) at the proximal transection site and the distal transection site under a microscope. The remaining thread was used as a marker for finding the nerve transection site in the sacrifice of the mice. In order to reduce DMSO toxicity, a solution of 60 mg/mL zonisamide in 100% DMSO was prepared and the solution was diluted in olive oil to give a solution of 3 mg/mL zonisamide in 5% DMSO. […] Myelin sheath formation in the sciatic nerve was analyzed in six mice in each group. […] The number and area of myelinated axons in the sciatic nerve were manually measured using ImageJ software in a blinded fashion.

[2] = system: severely crushed spinal cord model mice; test: Severely crushed spinal cord model mice: rotarod test; format: in vivo, mouse
Excerpt: Female C57BL/6J mice (8 weeks old; 19.5-22.0 g) were purchased from Charles River. The female C57BL/6J mice were anesthetized by intraperitoneally administering pentobarbital sodium and underwent back incision under a sterile condition to perform laminectomy at the 10th thoracic vertebra. The spinal cord was crushed at 100 kdyn using a tip with a diameter of 1.35 mm on IH Spinal Cord Impactor. After the occurrence of hematoma in the spinal cord was confirmed under a microscope, the wound was closed and 1 ml of physiological saline was subcutaneously injected into the posterior neck region to prevent dehydration. The mice with spinal cord injury were separated into two groups in a blinded fashion. […] One day after surgery, motor function of mice in both groups was assessed using BMS score (Basso mouse scale; Li et. al. J Neurosurg Spine 4: 165-173 (2006)) in a blinded fashion to select the mice with BMS score of 1 or lower and consider them as severely crushed spinal cord model mice. […] The latency until a mouse fell off the rotarod (holding time, in seconds; a maximum latency of 300 seconds) was measured in the accelerating rotation mode with an initial speed of 2 rpm, an accelerated speed of 5 rpm/min, and a maximum speed of 40 rpm. The latency was measured 3 times at an interval of 10 minutes and the three measurements were averaged for assessment (FIG. 15).

[3] = system: mouse sciatic nerve autologous transplantation model; test: Mouse sciatic nerve autologous transplantation model: walking track analysis (SFI); format: in vivo; settings: 30 mg/kg/day, 6 to 8 weeks after surgery
Excerpt: Adult male C57BL/6J mice (8 weeks old; 19.5-22.0 g) were purchased from Charles River. The mice were anesthetized with isoflurane and underwent gluteal muscle incision under a sterile condition to expose the sciatic nerve in the left leg. The sciatic nerve was cut at the following two sites (1) and (2): (1) the site 3 mm distal to the first bifurcation of biceps femoris (hereinafter referred to as proximal transection site) (2) the site 3 mm distal to the proximal transection site (hereinafter referred to as distal transection site) The excised nerve segment with a length of 3 mm was confirmed to be completely cut at the two sites. […] Myelin sheath formation in the sciatic nerve was analyzed in six mice in each group. […] The number and area of myelinated axons in the sciatic nerve were manually measured using ImageJ software in a blinded fashion. Motor function was assessed every week in three mice in each group using the walking track analysis. In the walking track analysis, footprints of both hindlimbs were recorded when mice were allowed to walk freely on a runway. Sciatic function index (SFI; Bain et al. Plast Reconstr Surg 83: 129-138 (1989)) was calculated by measuring the width and length of footprints of both legs in a blinded fashion. […] Footprints were recorded on six to eight thin boards.

NS(=O)(=O)Cc1noc2ccccc12 [Zonisamide, 3-sulfamoylmethyl-1,2-benzisoxazole]
area of axons, increase compared to the zonisamide non-administration group [1]: 3.9 fold | number of axons [1]: unchanged | holding time on rotarod ([2]; day 28 after surgery, 30 mg/kg/day intragastrically): 135.3 ± 16.4 s | holding time on rotarod compared to the control group ([2]; days 21 and 28 after surgery): longer | SFI (sciatic function index), motor function of hindlimbs [3]: dramatically improved
